Results from patent publication US5569668A (priority 1995, dated 1996).
Values after ≈ are worked out from the molar mass of the structure shown. Where two headings read alike, the source gives them in different places.

Tests used:
Type in all cases: cell-based
[1] = tested on: antibiotic resistant Staphylococcus; settings: conclusion from Table 1 MICs
Phytophthora infestans = experiment: microbe, parasite or virus in culture; settings: in Secale cereale, 96 h, read-out: Minimum Inhibitory Concentration (MIC)
[2] = tested on: Escherichia coli ATCC25922; experiment: MIC of nematophin on candidate microbial pathogens (Escherichia coli ATCC25922); settings: 24 h, 35° C., Table 1, read-out: Minimum Inhibitory Concentration (MIC)
[3] = tested on: Staphylococcus aureus ATCC29213; experiment: MIC of nematophin and its derivatives on Staphylococcus aureus ATCC29213
Bacillus subtilis = experiment: MIC of nematophin on candidate microbial pathogens (Bacillus subtilis); settings: 24 h, 35° C., Table 1, read-out: Minimum Inhibitory Concentration (MIC)
S. aureus 0017 = experiment: microbe, parasite or virus in culture; settings: Staphylococcus aureus, 0017, 24 h; read-out: Minimum Inhibitory Concentration (MIC)
Botrytis cinerea = experiment: MIC of nematophin on candidate microbial pathogens (Botrytis cinerea); settings: 48 h, 2 d, 24° C., Table 1, read-out: Minimum Inhibitory Concentration (MIC)
S. aureus 0012 = experiment: microbe, parasite or virus in culture; settings: Staphylococcus aureus, 0012, 24 h; read-out: Minimum Inhibitory Concentration (MIC)
[4] = 24 h, 35° C., Table 1, read-out: Minimum Inhibitory Concentration (MIC)
[5] = Table 2, similar bioassays as for nematophin, read-out: Minimum Inhibitory Concentration (MIC) of the derivatives of nematophin

How did the “antibiotic properties, in particular against antibiotic resistant Staphylococcus” value [1] turn out when `CCC(C)C(=O)C(=O)NCCc1c[nH]c2ccccc12` (racemic) [SID, 3-indoleethyl(3'-methyl-2'-oxo)pentanamide] was run?
The value was “potent properties”.

What about the MIC (Phytophthora infestans) of the same molecule?
The MIC was 2.5 µg/mL (≈ 9.18 µM).

And the MIC [2]?
The MIC was > 100 µg/mL.

What about the MIC [3, 4] of the same molecule?
Its MIC is 1.5 µg/mL.

What about the MIC (Bacillus subtilis) of the same molecule?
Its MIC is 12 µg/mL.

And the MIC (S. aureus 0017)?
Its MIC is 1.5 µg/mL (≈ 5.51 µM).

And the MIC (Botrytis cinerea)?
The MIC was 12 µg/mL.

What about the MIC (S. aureus 0012) of the same molecule?
Its MIC is 1.5 µg/mL (≈ 5.51 µM).

What does the source list for `CCC(C)C(=O)C(=O)NCCc1c[nH]c2ccccc12` (single isomer, unassigned) [NID, 3-indoleethyl 3-methyl-2-oxo-pentanamide]?
antibiotic properties, in particular against antibiotic resistant Staphylococcus [1]: potent properties; MIC [2]: > 100 µg/mL; MIC [3, 4]: 0.7 µg/mL; MIC (Bacillus subtilis): 12 µg/mL; MIC (S. aureus 0017): 0.7 µg/mL (≈ 2.57 µM); MIC (Botrytis cinerea): 12 µg/mL; MIC (S. aureus 0012): 0.7 µg/mL (≈ 2.57 µM)

Which MIC [3, 5] does the source give for `CCC(C)C(=O)C(=O)NCCc1c[nH]c2ccc(C)cc12` (stereo not shown) [5-MeIN] here?
The MIC was 3 µg/mL.

Which MIC [3, 5] does the source give for `CCC(C)C(=O)C(=O)NCCc1c[nH]c2ccc(OC)cc12` (stereo not shown) [5-MeOIN] here?
The MIC was 3 µg/mL.

How did the MIC [3, 5] turn out when `CCC(C)C(=O)C(=O)NCCc1c[nH]c2cc(F)ccc12` (stereo not shown) [6-FIN] was run?
Its MIC is 0.7 µg/mL.

For `CCC(=O)C(=O)NCCc1c[nH]c2ccccc12` [BAMIDE, 3-indoleethyl(2'-oxo)butanamide], which MIC [3, 5] is on record?
Its MIC is 100 µg/mL.

For `CC(C)C(=O)C(=O)NCCc1c[nH]c2ccccc12` [MAMIDE], which MIC [3, 5] is on record?
The MIC was 3 µg/mL.

`CCC(C)C(=O)C(=O)OCCc1c[nH]c2ccccc12` (stereo not shown) [OIN, 3-indoleethyl(3'-methyl-2'-oxo)pentanoate] was tested. Which MIC [3, 5] did it give?
The MIC was 25 µg/mL.

How did the MIC [3, 5] turn out when `CC(=O)C(=O)NCCc1c[nH]c2ccccc12` [PAMIDE, 3-indoleethyl(2'-oxo)propanamide] was run?
The MIC was 100 µg/mL.
